Laboratory results as given in ChEMBL document CHEMBL1141099, “Discovery of N-(2,6-dimethylphenyl)-substituted semicarbazones as anticonvulsants: hybrid pharmacophore-based design” (2005).

Key:
Mus musculus [1] = assay: Minimum dose required for anticonvulsant activity when given i.p., at 2 hr in mice upon subcutaneous strychnine seizure; assay type: functional
Mus musculus [2] = assay: Minimum dose required for anticonvulsant activity when given i.p., at 4 hr in mice upon maximal electroshock seizure; assay type: functional
Mus musculus [3] = assay: Minimum dose required for anticonvulsant activity when given i.p., at 0.5 hr in mice upon subcutaneous strychnine seizure; assay type: functional
Mus musculus [4] = assay: Minimum dose required for anticonvulsant activity when given i.p., at 0.5 hr in mice upon maximal electroshock seizure; assay type: functional
Rattus norvegicus [5] = assay: Number of rats protected at a dose of 30 mg/Kg when given oral at 0.25 hr upon maximal electroshock seizure; Total number of rats = 4; assay type: functional
Mus musculus [6] = assay: Post treatment activity score for CNS study using a actophotometer at a dose of 100 mg/Kg after 0.5 hr when given i.p., in mice (No. of animals 6); Control (24h before) 201
Mus musculus [7] = assay: Post treatment activity score for CNS study using a actophotometer at a dose of 100 mg/Kg after 1 hr when given i.p., in mice (No. of animals 6); Control (24h before) 201
Rattus norvegicus [8] = assay: Number of rats protected at a dose of 30 mg/Kg when given oral at 2 hr upon maximal electroshock seizure; Total number of rats = 4; assay type: functional
Rattus norvegicus [9] = assay: Number of rats protected at a dose of 30 mg/Kg when given oral at 1 hr upon maximal electroshock seizure; Total number of rats = 4; assay type: functional
Rattus norvegicus [10] = assay: Number of rats protected at a dose of 30 mg/Kg when given oral at 4 hr upon maximal electroshock seizure; Total number of rats = 4; assay type: functional
Rattus norvegicus [11] = assay: Number of rats protected at a dose of 30 mg/Kg when given oral at 0.5 hr upon maximal electroshock seizure; Total number of rats = 4; assay type: functional
Mus musculus [12] = assay: Minimum dose required for anticonvulsant activity when given i.p., at 0.5 hr in mice upon neurotoxicity seizure using rotarod test; assay type: functional
Mus musculus [13] = assay: Minimum dose required for anticonvulsant activity when given i.p., at 0.5 hr in mice upon subcutaneous pentylenetetrazole seizure; assay type: functional
Mus musculus [14] = assay: Post treatment activity score for CNS study using a actophotometer at a dose of 100 mg/Kg after 1 h when given i.p., in mice (No. of animals 6); Control (24h before) 372
Mus musculus [15] = assay: Post treatment activity score for CNS study using a actophotometer at a dose of 100 mg/Kg after 0.5 hr when given i.p., in mice (No. of animals 6); Control (24h before) 372
Rattus norvegicus [16] = assay: Enzymatic activity to assess the increase in level of SGOT at a dose of 30 mg/Kg for 14 days when given p.o., in 6 rats; Control 73.1; assay type: functional
Mus musculus [17] = assay: Post treatment immobility time for CNS study using Porsolt's swimpool test at a dose of 100 mg/Kg after 1 hr when given i.p., in mice (No. of animals 6); Control (24h before) 184
Rattus norvegicus [18] = assay: Toxic dose observed for anticonvulsant activity when given orally at 4 h in rat upon neurotoxicity seizure; assay type: functional; conditions: po
Mus musculus [19] = assay: Post treatment activity score for CNS study using a actophotometer at a dose of 100 mg/Kg after 1 hr when given i.p., in mice (No. of animals 6); Control (24h before) 258
Rattus norvegicus [20] = assay: Effective dose required for anticonvulsant activity when given orally at 4 h in rat upon maximal electroshock seizure; assay type: functional; conditions: po
Rattus norvegicus [21] = organism: Rattus norvegicus; assay: Protective index between effective dose and toxic dose in rat; assay type: functional
Rattus norvegicus [22] = assay: Enzymatic activity to assess the increase in level of SGPT at a dose of 30 mg/Kg for 14 days when given p.o., in 6 rats; Control 45.0; assay type: functional
Mus musculus [23] = assay: Post treatment activity score for CNS study using a actophotometer at a dose of 100 mg/Kg after 0.5 hr when given i.p., in mice (No. of animals 6); Control (24h before) 258
Mus musculus [24] = assay: Minimum dose required for anticonvulsant activity when given i.p., in mice upon neurotoxicity seizure using rotarod test
Mus musculus [25] = assay: Post treatment activity score for CNS study using a actophotometer at a dose of 100 mg/Kg after 0.5 hr when given i.p., in mice (No. of animals 6); Control (24h before) 280
Mus musculus [26] = assay: Post treatment activity score for CNS study using a actophotometer at a dose of 100 mg/Kg after 1 hr when given i.p., in mice (No. of animals 6); Control (24h before) 280
Mus musculus [27] = assay: Mean sleeping time evaluated for CNS study using the pentobarbital-induced narcosis model at a dose of 100 mg/Kg when given i.p., in mice (No. of animals 6)
Mus musculus [28] = assay: Post treatment activity score for CNS study using a actophotometer at a dose of 100 mg/Kg after 1 hr when given i.p., in mice (No. of animals 6); Control (24h before) 224
Mus musculus [29] = assay: Post treatment immobility time for CNS study using Porsolt's swimpool test at a dose of 100 mg/Kg after 1 hr when given i.p., in mice (No. of animals 6); Control (24h before) 176
Mus musculus [30] = assay: Post treatment activity score for CNS study using a actophotometer at a dose of 100 mg/Kg after 0.5 hr when given i.p., in mice (No. of animals 6); Control (24h before) 224
Mus musculus [31] = assay: Post treatment activity score for CNS study using a actophotometer at a dose of 100 mg/Kg after 0.5 hr when given i.p., in mice (No. of animals 6); Control (24h before) 214
Mus musculus [32] = assay: Post treatment immobility time for CNS study using Porsolt's swimpool test at a dose of 100 mg/Kg after 1 hr when given i.p., in mice (No. of animals 6); Control (24h before) 159
Mus musculus [33] = assay: Post treatment activity score for CNS study using a actophotometer at a dose of 100 mg/Kg after 1 h when given i.p., in mice (No. of animals 6); Control (24h before) 214
Rattus norvegicus [34] = assay: Effective dose required for anticonvulsant activity when given orally at 2 h in rat upon maximal electroshock seizure; assay type: functional; conditions: po
Rattus norvegicus [35] = assay: Toxic dose observed for anticonvulsant activity when given orally at 2 hr in rat upon neurotoxicity seizure; assay type: functional; conditions: po
[36] = biological target: 4-aminobutyrate aminotransferase, mitochondrial (Rattus norvegicus) (UniProt P50554); assay: In vitro percentage inhibition activity against GABA-T enzyme at a concentration of 2.5 uM after 6 h
4-aminobutyrate aminotransferase, mitochondrial (Rattus norvegicus), sequence (P50554 28-500 limits assumed): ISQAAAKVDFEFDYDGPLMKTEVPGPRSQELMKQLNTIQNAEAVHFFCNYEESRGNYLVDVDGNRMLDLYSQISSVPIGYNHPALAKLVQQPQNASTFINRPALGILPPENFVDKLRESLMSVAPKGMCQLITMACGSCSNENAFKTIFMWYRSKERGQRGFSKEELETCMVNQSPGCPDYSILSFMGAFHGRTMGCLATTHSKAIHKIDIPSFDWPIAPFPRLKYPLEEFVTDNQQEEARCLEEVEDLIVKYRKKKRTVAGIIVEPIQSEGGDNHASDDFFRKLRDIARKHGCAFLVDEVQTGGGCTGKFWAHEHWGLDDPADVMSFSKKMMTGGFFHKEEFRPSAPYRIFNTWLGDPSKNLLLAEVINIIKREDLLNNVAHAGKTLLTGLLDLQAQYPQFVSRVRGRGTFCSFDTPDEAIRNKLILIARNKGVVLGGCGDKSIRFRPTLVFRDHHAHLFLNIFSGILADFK

[37] = biological target: 4-aminobutyrate aminotransferase, mitochondrial (Rattus norvegicus) (UniProt P50554); assay: In vitro percentage inhibition activity against GABA-T enzyme at a concentration of 2.5 uM after 3 h
Mus musculus [38] = assay: Post treatment immobility time for CNS study using Porsolt's swimpool test at a dose of 100 mg/Kg after 1 h when given i.p., in mice (No. of animals 6); Control (24h before) 164
Rattus norvegicus [39] = organism: Rattus norvegicus; assay: Ex vitro percentage inhibition activity against GABA-T enzyme at a concentration of 1.25 uM after 3 h; assay type: functional
Rattus norvegicus [40] = assay: Effect on GABA level in rat whole brain concentration after 7 days post-treatment at a dose of 30 mg/Kg when given orally; Control 50.5; assay type: functional
Mus musculus [41] = assay: Post treatment activity score for CNS study using a actophotometer at a dose of 100 mg/Kg after 0.5 hr when given i.p., in mice (No. of animals 6); Control (24h before) 260
Rattus norvegicus [42] = assay: Toxic dose observed for anticonvulsant activity when given i.p., at 0.25 hr in rat upon neurotoxicity seizure; assay type: functional; conditions: ip
[43] = biological target: 4-aminobutyrate aminotransferase, mitochondrial (Rattus norvegicus) (UniProt P50554); assay: In vitro percentage inhibition activity against GABA-T enzyme at a concentration of 2.5 uM after 4.5 h
Rattus norvegicus [44] = organism: Rattus norvegicus; assay: Ex vitro percentage inhibition activity against GABA-T enzyme at a concentration of 1.25 uM after 4.5 h; assay type: functional
Rattus norvegicus [45] = assay: Effective dose required for anticonvulsant activity when given i.p., at 0.25 hr in rat upon maximal electroshock seizure; assay type: functional; conditions: ip
Rattus norvegicus [46] = assay: Effect on GABA level in rat whole brain concentration after 2 hr post-treatment at a dose of 100 mg/Kg when given i.p.; Control 48.4; assay type: functional
Mus musculus [47] = assay: Post treatment activity score for CNS study using a actophotometer at a dose of 100 mg/Kg after 1 hr when given i.p., in mice (No. of animals 6); Control (24h before) 260
Rattus norvegicus [48] = organism: Rattus norvegicus; assay: Ex vitro percentage inhibition activity against GABA-T enzyme at a concentration of 1.25 uM after 6 h; assay type: functional
Mus musculus [49] = assay: Post treatment activity score for CNS study using a actophotometer at a dose of 100 mg/Kg after 0.5 hr when given i.p., in mice (No. of animals 6); Control (24h before) 270
Mus musculus [50] = assay: Post treatment activity score for CNS study using a actophotometer at a dose of 100 mg/Kg after 1 hr when given i.p., in mice (No. of animals 6); Control (24h before) 270

Row | Compound | STY seizure (Mus musculus [1]) [mg/kg] | MES (Mus musculus [2]) [mg/kg] | STY seizure (Mus musculus [3]) [mg/kg] | MES (Mus musculus [4]) [mg/kg] | Activity (Rattus norvegicus [5]) | Activity (Rattus norvegicus [8]) | Activity (Rattus norvegicus [9]) | Activity (Rattus norvegicus [10]) | Activity (Rattus norvegicus [11]) | NT (Mus musculus [12]) [mg/kg] | PTZ seizure (Mus musculus [13]) [mg/kg] | PI (Rattus norvegicus [21]) | also measured
1 | Cc1cccc(C)c1NC(=O)/N=N/c1c(O)[nH]c2ccc(Br)cc12 | 100 | 300 | 30 | 100 | 1 | 2 | 0 | 0 | 1 | 300 | – | – | Activity (Mus musculus [6]): 172; Activity (Mus musculus [7]): 176
2 | Cc1ccc2[nH]c(O)c(/N=N/C(=O)Nc3c(C)cccc3C)c2c1 | 100 | 300 | 30 | 100 | 1 | 3 | 3 | 3 | 1 | 300 | 300 | – | Activity (Mus musculus [14]): 368; Activity (Mus musculus [15]): 355
3 | C/C(=N\NC(=O)Nc1c(C)cccc1C)c1ccc(N)cc1 | 100 | 300 | 30 | 100 | 1 | 2 | 4 | 4 | 3 | 300 | 300 | >15.9 | SGOT activity (Rattus norvegicus [16]): 71.3 units/mL; Activity (Mus musculus [17]): 204; TD50 (Rattus norvegicus [18]): > 464 mg/kg; Activity (Mus musculus [19]): 187; ED50 (Rattus norvegicus [20]): 29.1 mg/kg; SGPT activity (Rattus norvegicus [22]): 44.6 units/mL; Activity (Mus musculus [23]): 202; NT (Mus musculus [24]): 300 mg/kg
4 | Cc1cccc(C)c1NC(=O)/N=N/c1c(O)[nH]c2ccc(Cl)cc12 | 100 | 300 | 30 | 100 | 1 | 1 | 0 | 1 | 1 | 300 | 300 | – | Activity (Mus musculus [25]): 263; Activity (Mus musculus [26]): 267
5 | CC/C(C)=N\NC(=O)Nc1c(C)cccc1C | 100 | 300 | 30 | 100 | 1 | 3 | 4 | 3 | 4 | – | 300 | >17.2 | SGOT activity (Rattus norvegicus [16]): 79.6 units/mL; Time (Mus musculus [27]): 61 min; TD50 (Rattus norvegicus [18]): > 500 mg/kg; ED50 (Rattus norvegicus [20]): 29 mg/kg; Activity (Mus musculus [28]): 195; SGPT activity (Rattus norvegicus [22]): 49.3 units/mL; Activity (Mus musculus [29]): 199; Activity (Mus musculus [30]): 188
6 | CC(=O)C/C(C)=N\NC(=O)Nc1c(C)cccc1C | 300 | 300 | 100 | 100 | 2 | 4 | 2 | 4 | 4 | 300 | 300 | >10.8 | Activity (Mus musculus [31]): 127; Activity (Mus musculus [32]): 228; Activity (Mus musculus [33]): 144; ED50 (Rattus norvegicus [34]): 19.8 mg/kg; TD50 (Rattus norvegicus [35]): > 216 mg/kg; NT (Mus musculus [24]): 300 mg/kg
7 | C/C(=N\NC(=O)Nc1c(C)cccc1C)c1ccc(O)cc1 | 100 | 300 | 30 | 100 | 1 | 3 | 4 | 4 | 2 | – | 300 | >1.6 | inhibition [36]: 55%; inhibition [37]: 0%; Activity (Mus musculus [38]): 198; Time (Mus musculus [27]): 108 min; Inhibition (Rattus norvegicus [39]): 0%; Activity (Rattus norvegicus [40]): 93.6 ug/100mg of tissue; Activity (Mus musculus [41]): 205; TD50 (Rattus norvegicus [42]): > 68 mg/kg; inhibition [43]: 0%; Inhibition (Rattus norvegicus [44]): 25%; ED50 (Rattus norvegicus [45]): 41.6 mg/kg; Activity (Rattus norvegicus [46]): 81.1 ug/100mg of tissue; Activity (Mus musculus [47]): 198; Inhibition (Rattus norvegicus [48]): 60%
8 | Cc1cccc(C)c1NC(=O)/N=N/c1c(O)[nH]c2ccccc12 | 100 | 300 | 30 | 100 | 2 | 1 | 1 | 3 | 2 | 300 | – | – | Activity (Mus musculus [49]): 224; Activity (Mus musculus [50]): 217
